PubChem BioAssay (NCI)
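Step 1: Grow cells in 96-well plates. Step 2: Expose to compound for 48 hours at 5 concentrations. Step 3: Interpolate endpoints linearly; if unreached, use highest concentration. The concentration for full growth arrest is given as TGI.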

Tests used:
Test in all cases: DTP human tumour cell line panel, 48 h
EKVX NSCLC = tested on: EKVX NSCLC
HCT-15 colon = tested on: HCT-15 colon
HL-60(TB) leukemia = tested on: HL-60(TB) leukemia
HS 578T breast = tested on: HS 578T breast
MALME-3M melanoma = tested on: MALME-3M melanoma
MCF7 breast = tested on: MCF7 breast
MDA-N = tested on: MDA-N
MOLT-4 leukemia = tested on: MOLT-4 leukemia
NCI-H23 lung = tested on: NCI-H23 lung
NCI-H522 lung = tested on: NCI-H522 lung
OVCAR-4 ovarian = tested on: OVCAR-4 ovarian
OVCAR-5 ovarian = tested on: OVCAR-5 ovarian
OVCAR-8 ovarian = tested on: OVCAR-8 ovarian
RPMI-8226 leukemia = tested on: RPMI-8226 leukemia
SK-MEL-28 melanoma = tested on: SK-MEL-28 melanoma
SNB-19 CNS = tested on: SNB-19 CNS
SW-620 colon = tested on: SW-620 colon
T-47D breast = tested on: T-47D breast
TK-10 renal = tested on: TK-10 renal
SF-539 CNS = tested on: SF-539 CNS

SMILES | TGI (EKVX NSCLC) [µM] | TGI (HCT-15 colon) [µM] | TGI (HL-60(TB) leukemia) [µM] | TGI (HS 578T breast) [µM] | TGI (MALME-3M melanoma) [µM] | TGI (MCF7 breast) [µM] | TGI (MDA-N) [µM] | TGI (MOLT-4 leukemia) [µM] | TGI (NCI-H23 lung) [µM] | TGI (NCI-H522 lung) [µM] | TGI (OVCAR-4 ovarian) [µM] | TGI (OVCAR-5 ovarian) [µM] | TGI (OVCAR-8 ovarian) [µM] | TGI (RPMI-8226 leukemia) [µM] | TGI (SK-MEL-28 melanoma) [µM] | TGI (SNB-19 CNS) [µM] | TGI (SW-620 colon) [µM] | TGI (T-47D breast) [µM] | TGI (TK-10 renal) [µM] | TGI (SF-539 CNS) [µM]
CCOC(=O)c1ccc(C(=O)n2ccnc2)[nH]1 | > 100 | > 100 | > 100 | > 100 | > 100 | > 100 | > 100 | > 100 | > 100 | > 100 | > 100 | > 100 | > 100 | > 100 | > 100 | > 100 | > 100 | > 100 | > 100 | –
C/C=C(/C)C(=O)O[C@H]1[C@H]2[C@@H]([C@@H](OC(C)=O)[C@H](C)C(=O)[C@@]34C[C@@H](C)C(=O)[C@]3(/C=C(\C)[C@H]1OC(C)=O)O4)C2(C)C | 17.1 | 5.77 | 2.13 | 19.7 | – | 5.98 | 4.94 | 6.46 | > 20 | 6.29 | 14.2 | 7.77 | 6.54 | 9.94 | – | 18.4 | 6.41 | 5.74 | 7.61 | 5.83
O=c1[nH]c(N/N=C\C(=N/Nc2nc3ccccc3c(=O)[nH]2)C(O)C(O)C(O)CO)nc2ccccc12 (stereo not given) | > 100 | > 100 | > 100 | > 100 | – | > 100 | > 100 | > 100 | > 100 | – | – | > 100 | > 100 | > 100 | > 100 | > 100 | > 100 | > 100 | > 100 | > 100
C/C(N)=C/C(=O)c1[nH]c(C(=O)O)cc1C1CCN(Cc2ccccc2)C1=O (stereo not given) | > 100 | > 100 | – | > 100 | 50.2 | 95.8 | 69.7 | 57.9 | 47.9 | 49.2 | > 100 | > 100 | 50.8 | 44.7 | 72.5 | > 100 | > 100 | 74.9 | > 100 | –
CC1(C)C2CCC1(C)C(OC(=O)/C=C/C(=O)OC1CC3CCC1(C)C3(C)C)C2 (stereo not given) | > 100 | > 100 | 40.7 | > 100 | – | 67.4 | > 100 | 45.9 | > 100 | > 100 | > 100 | > 100 | > 100 | – | 40.2 | > 100 | > 100 | > 100 | > 100 | > 100
CNC1c2ccccc2C(=O)c2cc3c(cc21)OCCOCCOCCOCCO3 (stereo not given) | > 100 | > 100 | 66.6 | > 100 | – | > 100 | > 100 | 92.2 | – | > 100 | > 100 | > 100 | > 100 | > 100 | > 100 | > 100 | > 100 | > 100 | > 100 | > 100
C=C1C[C@@H]2O[C@H]3[C@H]4[C@@H](C[C@@H](C)[C@@H](OC(C)=O)[C@H]42)[C@@H](C)CO[C@@]3(C)[C@H](OC(=O)CCCCCCC)C[C@H]1O | 31 | 30.4 | 44.1 | 36.4 | – | 40.4 | 30.3 | 52.7 | 40.2 | 34.4 | 28.1 | 32 | 31.4 | 42.6 | 32.7 | 32.4 | 40.3 | 24.6 | 32.8 | 40.5
Oc1[nH]c(=S)[nH]c1/C=C1/C(c2ccccc2)=Nc2ccccc21 | 36.4 | 31.2 | 26.1 | 42.4 | 26.4 | 28.5 | 28.4 | 32.1 | 29 | 26.3 | 57.4 | 36.1 | 28.8 | 36.2 | 30.3 | 76.3 | 31.9 | – | 44.5 | 31.2
CNC(=O)C1(C#N)C(c2ccccc2)C(C#N)(C(=O)NC)C1c1ccccc1 (stereo not given) | > 100 | > 100 | – | > 100 | – | > 100 | > 100 | > 100 | > 100 | > 100 | > 100 | > 100 | > 100 | > 100 | > 100 | > 100 | > 100 | > 100 | > 100 | > 100
CCC1(CC)C(=O)N(C(=O)c2ccccc2)N(C(=O)c2ccc(Cl)cc2)C1=O | > 75 | > 75 | > 75 | > 75 | > 75 | > 75 | > 75 | 47.7 | > 75 | > 75 | > 75 | > 75 | > 75 | > 75 | > 75 | > 75 | > 75 | > 75 | > 75 | –
CC(=O)Nc1ccc(C(=O)NN2C(=O)CSC2c2ccc(O)cc2)cc1 (stereo not given) | > 100 | > 100 | > 100 | > 100 | – | > 100 | > 100 | > 100 | > 100 | – | > 100 | > 100 | > 100 | > 100 | > 100 | > 100 | > 100 | > 100 | > 100 | > 100
COc1ccc2c(=O)cc(-c3ccc(OC)c(OC)c3OC)oc2c1 | > 100 | > 100 | > 62.4 | > 100 | > 100 | – | > 100 | > 100 | > 100 | > 100 | > 100 | > 100 | > 100 | 53.9 | > 100 | > 100 | > 100 | > 100 | > 100 | > 100
